# Key:
# [1] = test system: corn; assay: Test B pre/postemergence corn; type: in vivo, Zea mays
# Procedure, shortened: (§1)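 Herbicidal effect was estimated by eye on a ten-point control scale after plants spent twelve to sixteen days in a greenhouse following soil or foliar treatment. Foliar sprays targeted plants at one to four leaves; all doses were formulated in a non-phytotoxic solvent with surfactant.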
# [2] = test system: velvetleaf; assay: Test B pre/postemergence velvetleaf; type: in vivo, Abutilon theophrasti
# Procedure, shortened: as §1
# [3] = test system: blackgrass; assay: Test B pre/postemergence blackgrass; type: in vivo, Alopecurus myosuroides
# Procedure, shortened: as §1
# [4] = test system: wild oat; assay: Test B pre/postemergence wild oat; type: in vivo, Avena fatua
# Procedure, shortened: as §1
# [5] = test system: surinam grass; assay: Test B pre/postemergence surinam grass; type: in vivo, Brachiaria decumbens
# Procedure, shortened: as §1
# [6] = test system: purple nutsedge; assay: Test B pre/postemergence purple nutsedge; type: in vivo, Cyperus rotundus
# Procedure, shortened: as §1
# [7] = test system: rice; assay: Test B flood test rice; type: in vivo, Oryza sativa
# Procedure, shortened: (§2)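 Read-out is a visual response score from 0 (no effect) to 10 (complete control), assigned by comparison with untreated controls. Treatment was applied at the 2-leaf stage, and plants stayed in the greenhouse for twelve to sixteen days before scoring.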
# [8] = test system: rape; assay: Test B pre/postemergence rape; type: in vivo, Brassica napus
# Procedure, shortened: as §1
# [9] = test system: pigweed; assay: Test B pre/postemergence pigweed; type: in vivo, Amaranthus retroflexus
# Procedure, shortened: as §1
# [10] = test system: sugar beet; assay: Test B pre/postemergence sugar beet; type: in vivo, Beta vulgaris
# Procedure, shortened: as §1
# [11] = test system: crabgrass; assay: Test B pre/postemergence crabgrass; type: in vivo, Digitaria sanguinalis
# Procedure, shortened: as §1
# [12] = test system: wheat; assay: Test B pre/postemergence wheat; type: in vivo, Triticum aestivum
# Procedure, shortened: as §1
# [13] = test system: duck salad; assay: Test B flood test duck salad; type: in vivo, Heteranthera limosa
# Procedure, shortened: as §2
# [14] = test system: bedstraw; assay: Test B pre/postemergence bedstraw; type: in vivo, Galium aparine
# Procedure, shortened: as §1
# [15] = test system: smallflower flatsedge; assay: Test B flood test smallflower flatsedge; type: in vivo, Cyperus difformis
# Procedure, shortened: as §2
# [16] = test system: soybean; assay: Test B pre/postemergence soybean; type: in vivo, Glycine max
# Procedure, shortened: as §1
# [17] = Postemergence, Rate 125 g/ha, scale of 0 to 10 where 0 is no effect and 10 is complete control
# [18] = Preemergence, Rate 62 g/ha, scale 0 to 10 (0 no effect, 10 complete control)
# [19] = Preemergence, Rate 125 g/ha, 0 is no effect, 10 is complete control
# [20] = Preemergence, Rate 250 g/ha, scale 0 to 10, 0 is no effect, 10 is complete control
# [21] = Preemergence, Rate 500 g/ha, scale 0 to 10 (0 no effect, 10 complete control)
# [22] = Rate 62 g/ha, Postemergence, scale of 0 to 10 where 0 is no effect and 10 is complete control
# [23] = Rate 250 g/ha, Postemergence, scale 0 to 10, 0 is no effect, 10 is complete control
# [24] = Rate 500 g/ha, Postemergence, scale 0 to 10
# [25] = Postemergence (flood test species), Rate 125 g/ha, scale of 0 to 10 where 0 is no effect and 10 is complete control
# [26] = Rate 31 g/ha, Postemergence section (flood test species), scale 0 to 10
# [27] = Rate 62 g/ha, Postemergence section, flood test species, scale of 0 to 10 where 0 is no effect and 10 is complete control
# [28] = Rate 250 g/ha, Postemergence (flood test), scale 0 to 10, 0 is no effect, 10 is complete control
# [29] = Rate 250 g/ha, Pre-emergence, flood-test species, scale 0 to 10, 0 is no effect, 10 is complete control
# [30] = Rate 500 g/ha, headed Pre-emergence (flood test species), scale 0 to 10 (0 no effect, 10 complete control)
# [31] = Rate 1000 g/ha, Pre-emergence (as headed), scale 0 to 10
# [32] = Rate 2000 g/ha, Pre-emergence (as headed), scale 0 to 10
compound,measurement,setting,value
C=C(C)Cn1c(=O)on(C(=O)N(c2ccc(F)cc2)C(C)C)c1=O [Compound 139],Corn plant response rating,[1]; [17],2
same,Corn plant response rating,[1]; [18],0
same,Corn plant response rating (0 to 10 scale),[1]; [19],0
same,Corn plant response rating,[1]; [20],4
same,Corn plant response rating,[1]; [21],7
same,Corn plant response rating,[1]; [22],0
same,"Plant response rating, Corn",[1]; [23],2
same,Corn plant response rating,[1]; [24],2
same,Velvetleaf plant response rating,[2]; [17],4
same,Velvetleaf plant response rating,[2]; [18],2
same,Velvetleaf plant response rating (0 to 10 scale),[2]; [19],3
same,Velvetleaf plant response rating,[2]; [20],5
same,Velvetleaf plant response rating,[2]; [21],7
same,Velvetleaf plant response rating,[2]; [22],2
same,"Plant response rating, Velvetleaf",[2]; [23],5
same,Velvetleaf plant response rating,[2]; [24],6
same,Blackgrass plant response rating,[3]; [17],2
same,Blackgrass plant response rating,[3]; [18],4
same,Blackgrass plant response rating (0 to 10 scale),[3]; [19],6
same,Blackgrass plant response rating,[3]; [20],9
same,Blackgrass plant response rating,[3]; [21],10
same,Blackgrass plant response rating,[3]; [22],2
same,"Plant response rating, Blackgrass",[3]; [23],7
same,Blackgrass plant response rating,[3]; [24],8
same,Wild oats plant response rating,[4]; [17],2
same,Wild oats plant response rating,[4]; [18],3
same,Wild oats plant response rating (0 to 10 scale),[4]; [19],7
same,Wild oats plant response rating,[4]; [20],8
same,Wild oats plant response rating,[4]; [21],9
same,Wild oats plant response rating,[4]; [22],2
same,"Plant response rating, Wild oats",[4]; [23],4
same,Wild oats plant response rating,[4]; [24],4
same,B. signalgrass plant response rating,[5]; [17],2
same,B. signalgrass plant response rating,[5]; [18],0
same,B. signalgrass plant response rating (0 to 10 scale),[5]; [19],2
same,B. signalgrass plant response rating,[5]; [20],8
same,B. signalgrass plant response rating,[5]; [21],9
same,B. signalgrass plant response rating,[5]; [22],2
same,"Plant response rating, B. signalgrass",[5]; [23],6
same,B. signalgrass plant response rating,"[5]; Rate 500 g/ha, Postemergence, scale of 0 to 10 where 0 is no effect and 10 is complete control",7
same,Nutsedge plant response rating,[6]; [17],0
same,Nutsedge plant response rating,[6]; [18],0
same,Nutsedge plant response rating (0 to 10 scale),[6]; [19],0
same,Nutsedge plant response rating,[6]; [20],0
same,Nutsedge plant response rating,[6]; [21],0
same,Nutsedge plant response rating,[6]; [22],0
same,"Plant response rating, Nutsedge",[6]; [23],0
same,Nutsedge plant response rating,[6]; [24],4
same,Rice plant response rating,[7]; [25],0
same,Rice plant response rating,[7]; [26],0
same,Rice plant response rating,[7]; [27],0
same,"Plant response rating, Rice",[7]; [28],0
same,Rice plant response rating,[7]; [29],0
same,"Plant response rating, Rice",[7]; [30],0
same,Rice plant response rating,[7]; [31],0
same,Rice plant response rating,[7]; [32],0
same,Rape plant response rating,[8]; [17],2
same,Rape plant response rating,[8]; [18],0
same,Rape plant response rating (0 to 10 scale),[8]; [19],0
same,Rape plant response rating,[8]; [20],4
same,Rape plant response rating,[8]; [21],9
same,Rape plant response rating,[8]; [22],0
same,"Plant response rating, Rape",[8]; [23],2
same,Rape plant response rating,[8]; [24],4
same,Redroot pigweed plant response rating,[9]; [17],3
same,Redroot pigweed plant response rating,[9]; [18],6
same,Redroot pigweed plant response rating (0 to 10 scale),[9]; [19],8
same,Redroot pigweed plant response rating,[9]; [20],10
same,Redroot pigweed plant response rating,[9]; [21],10
same,Redroot pigweed plant response rating,[9]; [22],3
same,"Plant response rating, Redroot pigweed",[9]; [23],4
same,Redroot pigweed plant response rating,[9]; [24],4
same,Sugarbeets plant response rating,[10]; [17],0
same,Sugarbeets plant response rating,[10]; [18],3
same,Sugarbeets plant response rating (0 to 10 scale),[10]; [19],3
same,Sugarbeets plant response rating,[10]; [20],4
same,Sugarbeets plant response rating,[10]; [21],6
same,Sugarbeets plant response rating,[10]; [22],0
same,"Plant response rating, Sugarbeets",[10]; [23],2
same,Sugarbeets plant response rating,[10]; [24],2
same,Crabgrass plant response rating,[11]; [17],8
same,Crabgrass plant response rating,[11]; [18],7
same,Crabgrass plant response rating (0 to 10 scale),[11]; [19],10
same,Crabgrass plant response rating,[11]; [20],10
same,Crabgrass plant response rating,[11]; [21],10
same,Crabgrass plant response rating,[11]; [22],8
same,"Plant response rating, Crabgrass",[11]; [23],9
same,Crabgrass plant response rating,[11]; [24],9
same,Wheat plant response rating,[12]; [17],2
same,Wheat plant response rating,[12]; [18],0
same,Wheat plant response rating (0 to 10 scale),[12]; [19],0
same,Wheat plant response rating,[12]; [20],2
same,Wheat plant response rating,[12]; [21],4
same,Wheat plant response rating,[12]; [22],2
same,"Plant response rating, Wheat",[12]; [23],4
same,Wheat plant response rating,[12]; [24],4
same,Ducksalad plant response rating,[13]; [25],0
same,Ducksalad plant response rating,[13]; [26],0
same,Ducksalad plant response rating,[13]; [27],0
same,"Plant response rating, Ducksalad",[13]; [28],0
same,Ducksalad plant response rating,[13]; [29],0
same,"Plant response rating, Ducksalad",[13]; [30],0
same,Ducksalad plant response rating,[13]; [31],0
same,Ducksalad plant response rating,[13]; [32],2
same,Bedstraw plant response rating,[14]; [17],2
same,Bedstraw plant response rating,[14]; [18],0
same,Bedstraw plant response rating (0 to 10 scale),[14]; [19],0
same,Bedstraw plant response rating,[14]; [20],2
same,Bedstraw plant response rating,[14]; [21],9
same,"Plant response rating, Bedstraw",[14]; [23],5
same,Bedstraw plant response rating,"[14]; Rate 500 g/ha, Postemergence, scale 0 to 10, 0 no effect, 10 complete control",5
same,S. Flatsedge plant response rating,[15]; [25],0
same,S. Flatsedge plant response rating,"[15]; Pre-emergence, Rate 1000 g/ha, scale 0 to 10 (0 no effect, 10 complete control)",0
same,S. Flatsedge plant response rating,[15]; [27],0
same,"Plant response rating, S. Flatsedge",[15]; [28],0
same,S. Flatsedge plant response rating,[15]; [29],0
same,S. Flatsedge plant response rating,"[15]; Rate 500 g/ha, Pre-emergence, flood test species, scale 0 to 10 (0 no effect, 10 complete control)",0
same,S. Flatsedge plant response rating,[15]; [32],0
same,Soybean plant response rating,[16]; [17],2
same,Soybean plant response rating,[16]; [18],0
same,Soybean plant response rating (0 to 10 scale),[16]; [19],0
same,Soybean plant response rating,[16]; [20],0
same,Soybean plant response rating,[16]; [21],2
same,Soybean plant response rating,[16]; [22],1
same,"Plant response rating, Soybean",[16]; [23],4
same,Soybean plant response rating,[16]; [24],5
